#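 GI50 is the concentration that inhibits growth by half. TGI is the concentration that stops growth completely.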
# Tests used:
# Test in all cases: NCI-60 cell line screen, 384-well format
# A549 NSCLC = test system: A549 NSCLC
# ACHN renal = test system: ACHN renal
# BT-549 breast = test system: BT-549 breast
# CCRF-CEM leukemia = test system: CCRF-CEM leukemia
# DU-145 prostate = test system: DU-145 prostate
# EKVX NSCLC = test system: EKVX NSCLC
# HCT-15 colon = test system: HCT-15 colon
# HL-60(TB) leukemia = test system: HL-60(TB) leukemia
# HOP-62 NSCLC = test system: HOP-62 NSCLC
# HOP-92 NSCLC = test system: HOP-92 NSCLC
# HS 578T breast = test system: HS 578T breast
# K-562 leukemia = test system: K-562 leukemia
# LOX IMVI melanoma = test system: LOX IMVI melanoma
# M14 melanoma = test system: M14 melanoma
# MALME-3M melanoma = test system: MALME-3M melanoma
# MDA-MB-231 breast = test system: MDA-MB-231 breast
# MDA-MB-435 melanoma = test system: MDA-MB-435 melanoma
# MDA-MB-468 breast = test system: MDA-MB-468 breast
# MOLT-4 leukemia = test system: MOLT-4 leukemia
# NCI-H23 lung = test system: NCI-H23 lung
# NCI-H322M lung = test system: NCI-H322M lung
# NCI-H522 lung = test system: NCI-H522 lung
# OVCAR-3 ovarian = test system: OVCAR-3 ovarian
# OVCAR-4 ovarian = test system: OVCAR-4 ovarian
# OVCAR-5 ovarian = test system: OVCAR-5 ovarian
# OVCAR-8 ovarian = test system: OVCAR-8 ovarian
# PC-3 prostate = test system: PC-3 prostate
# RPMI-8226 leukemia = test system: RPMI-8226 leukemia
# RXF 393 renal = test system: RXF 393 renal
# SF-268 CNS = test system: SF-268 CNS
# SF-539 CNS = test system: SF-539 CNS
# SK-MEL-2 melanoma = test system: SK-MEL-2 melanoma
# SK-MEL-28 melanoma = test system: SK-MEL-28 melanoma
# SN12C renal = test system: SN12C renal
# SNB-19 CNS = test system: SNB-19 CNS
# SNB-75 CNS = test system: SNB-75 CNS
# SW-620 colon = test system: SW-620 colon
# TK-10 renal = test system: TK-10 renal
# UACC-257 melanoma = test system: UACC-257 melanoma
# UACC-62 melanoma = test system: UACC-62 melanoma
# UO-31 renal = test system: UO-31 renal
# 786-0 renal = test system: 786-0 renal
# A498 renal = test system: A498 renal
# CAKI-1 renal = test system: CAKI-1 renal
# COLO 205 colon = test system: COLO 205 colon
# HCC-2998 colon = test system: HCC-2998 colon
# HT29 colon = test system: HT29 colon
# IGROV1 ovarian = test system: IGROV1 ovarian
# KM12 colon = test system: KM12 colon
# MCF7 breast = test system: MCF7 breast
# NCI-H226 lung = test system: NCI-H226 lung
# NCI-H460 NSCLC = test system: NCI-H460 NSCLC
# NCI/ADR-RES ovarian = test system: NCI/ADR-RES ovarian
# SF-295 CNS = test system: SF-295 CNS
# SK-MEL-5 melanoma = test system: SK-MEL-5 melanoma
# SK-OV-3 ovarian = test system: SK-OV-3 ovarian
# SR leukemia = test system: SR leukemia
# T-47D breast = test system: T-47D breast
# U251 glioblastoma = test system: U251 glioblastoma
smiles,measurement,setting,value
CO[C@H](C(=O)[C@@H](O)[C@@H](C)O)[C@@H]1Cc2cc3cc(OC4CC(OC5CC(O)C(O)C(C)O5)C(O)C(C)O4)c(C)c(O)c3c(O)c2C(=O)[C@H]1OC1CC(OC2CC(OC3CC(C)(O)C(O)C(C)O3)C(O)C(C)O2)C(O)C(C)O1 (stereo not given in full),GI50,A549 NSCLC,30.4 nM
same,GI50,ACHN renal,54.6 nM
same,TGI,ACHN renal,294 nM
same,GI50,BT-549 breast,10.6 nM
same,TGI,BT-549 breast,23.7 nM
same,GI50,CCRF-CEM leukemia,33.9 nM
same,TGI,CCRF-CEM leukemia,110 nM
same,GI50,DU-145 prostate,28.8 nM
same,GI50,EKVX NSCLC,75.1 nM
same,TGI,EKVX NSCLC,11000 nM
same,GI50,HCT-15 colon,139 nM
same,TGI,HCT-15 colon,970 nM
same,GI50,HL-60(TB) leukemia,14 nM
same,TGI,HL-60(TB) leukemia,29.4 nM
same,GI50,HOP-62 NSCLC,13.7 nM
same,TGI,HOP-62 NSCLC,29.5 nM
same,GI50,HOP-92 NSCLC,31.7 nM
same,GI50,HS 578T breast,13.2 nM
same,TGI,HS 578T breast,27.7 nM
same,GI50,K-562 leukemia,18.8 nM
same,TGI,K-562 leukemia,40.4 nM
same,GI50,LOX IMVI melanoma,16.9 nM
same,TGI,LOX IMVI melanoma,31.2 nM
same,GI50,M14 melanoma,18 nM
same,TGI,M14 melanoma,39.8 nM
same,GI50,MALME-3M melanoma,14.1 nM
same,TGI,MALME-3M melanoma,28 nM
same,GI50,MDA-MB-231 breast,16.6 nM
same,TGI,MDA-MB-231 breast,37.2 nM
same,GI50,MDA-MB-435 melanoma,18.9 nM
same,TGI,MDA-MB-435 melanoma,38.4 nM
same,GI50,MDA-MB-468 breast,16.3 nM
same,TGI,MDA-MB-468 breast,32.4 nM
same,TGI,MOLT-4 leukemia,17.7 nM
same,GI50,NCI-H23 lung,18.4 nM
same,TGI,NCI-H23 lung,35.9 nM
same,GI50,NCI-H322M lung,17.4 nM
same,TGI,NCI-H322M lung,42.2 nM
same,GI50,NCI-H522 lung,13 nM
same,TGI,NCI-H522 lung,26.8 nM
same,GI50,OVCAR-3 ovarian,20.3 nM
same,TGI,OVCAR-3 ovarian,73.4 nM
same,GI50,OVCAR-4 ovarian,31.6 nM
same,TGI,OVCAR-4 ovarian,371 nM
same,GI50,OVCAR-5 ovarian,19.5 nM
same,TGI,OVCAR-5 ovarian,43.5 nM
same,GI50,OVCAR-8 ovarian,15.5 nM
same,TGI,OVCAR-8 ovarian,29.9 nM
same,GI50,PC-3 prostate,32.9 nM
same,TGI,PC-3 prostate,220 nM
same,GI50,RPMI-8226 leukemia,11.1 nM
same,TGI,RPMI-8226 leukemia,23.6 nM
same,GI50,RXF 393 renal,10.7 nM
same,TGI,RXF 393 renal,23.1 nM
same,GI50,SF-268 CNS,17.2 nM
same,TGI,SF-268 CNS,965 nM
same,GI50,SF-539 CNS,13.6 nM
same,TGI,SF-539 CNS,27.1 nM
same,GI50,SK-MEL-2 melanoma,32.9 nM
same,TGI,SK-MEL-2 melanoma,47.9 nM
same,GI50,SK-MEL-28 melanoma,16.4 nM
same,TGI,SK-MEL-28 melanoma,30.5 nM
same,GI50,SN12C renal,15.2 nM
same,TGI,SN12C renal,36.9 nM
same,GI50,SNB-19 CNS,23.7 nM
same,GI50,SNB-75 CNS,11.8 nM
same,TGI,SNB-75 CNS,30.4 nM
same,GI50,SW-620 colon,32.4 nM
same,GI50,TK-10 renal,50.3 nM
same,GI50,UACC-257 melanoma,18.5 nM
same,TGI,UACC-257 melanoma,34.5 nM
same,TGI,UACC-62 melanoma,21.6 nM
same,GI50,UO-31 renal,182 nM
same,TGI,UO-31 renal,451 nM
Cc1sc2c(c1C)C(c1ccc(Cl)cc1)=N[C@@H](CC(=O)OC(C)(C)C)c1nnc(C)n1-2,GI50,786-0 renal,118 nM
same,TGI,786-0 renal,13800 nM
same,GI50,A498 renal,197 nM
same,TGI,A498 renal,9700 nM
same,GI50,A549 NSCLC,177 nM
same,TGI,A549 NSCLC,13600 nM
same,GI50,ACHN renal,560 nM
same,TGI,ACHN renal,16900 nM
same,GI50,BT-549 breast,51 nM
same,TGI,BT-549 breast,869 nM
same,GI50,CAKI-1 renal,53.9 nM
same,TGI,CAKI-1 renal,13000 nM
same,GI50,CCRF-CEM leukemia,230 nM
same,TGI,CCRF-CEM leukemia,1680 nM
same,GI50,COLO 205 colon,100 nM
same,TGI,COLO 205 colon,11500 nM
same,GI50,DU-145 prostate,2220 nM
same,TGI,DU-145 prostate,20100 nM
same,GI50,EKVX NSCLC,4610 nM
same,TGI,EKVX NSCLC,20500 nM
same,GI50,HCC-2998 colon,94.6 nM
same,TGI,HCC-2998 colon,394 nM
same,GI50,HCT-15 colon,48.4 nM
same,TGI,HCT-15 colon,371 nM
same,GI50,HL-60(TB) leukemia,23.3 nM
same,TGI,HL-60(TB) leukemia,73.2 nM
same,GI50,HOP-62 NSCLC,71.9 nM
same,TGI,HOP-62 NSCLC,10900 nM
same,GI50,HOP-92 NSCLC,74.4 nM
same,TGI,HOP-92 NSCLC,13600 nM
same,GI50,HS 578T breast,30.7 nM
same,TGI,HS 578T breast,266 nM
same,GI50,HT29 colon,82 nM
same,TGI,HT29 colon,12600 nM
same,GI50,IGROV1 ovarian,160 nM
same,TGI,IGROV1 ovarian,1190 nM
same,GI50,K-562 leukemia,139 nM
same,TGI,K-562 leukemia,13500 nM
same,GI50,KM12 colon,322 nM
same,TGI,KM12 colon,13200 nM
same,GI50,LOX IMVI melanoma,57.3 nM
same,TGI,LOX IMVI melanoma,223 nM
same,GI50,M14 melanoma,447 nM
same,TGI,M14 melanoma,17500 nM
same,GI50,MALME-3M melanoma,96.7 nM
same,TGI,MALME-3M melanoma,2330 nM
same,GI50,MCF7 breast,38.3 nM
same,TGI,MCF7 breast,10300 nM
same,GI50,MDA-MB-231 breast,57.7 nM
same,TGI,MDA-MB-231 breast,13700 nM
same,GI50,MDA-MB-435 melanoma,599 nM
same,TGI,MDA-MB-435 melanoma,10700 nM
same,GI50,MDA-MB-468 breast,37.3 nM
same,TGI,MDA-MB-468 breast,109 nM
same,GI50,MOLT-4 leukemia,201 nM
same,TGI,MOLT-4 leukemia,1170 nM
same,GI50,NCI-H226 lung,106 nM
same,TGI,NCI-H226 lung,12300 nM
same,GI50,NCI-H23 lung,148 nM
same,TGI,NCI-H23 lung,3500 nM
same,GI50,NCI-H322M lung,241 nM
same,TGI,NCI-H322M lung,14600 nM
same,GI50,NCI-H460 NSCLC,1040 nM
same,TGI,NCI-H460 NSCLC,15000 nM
same,GI50,NCI-H522 lung,56 nM
same,TGI,NCI-H522 lung,434 nM
same,GI50,NCI/ADR-RES ovarian,80.5 nM
same,TGI,NCI/ADR-RES ovarian,839 nM
same,GI50,OVCAR-3 ovarian,86 nM
same,TGI,OVCAR-3 ovarian,1070 nM
same,GI50,OVCAR-4 ovarian,42.1 nM
same,TGI,OVCAR-4 ovarian,254 nM
same,GI50,OVCAR-5 ovarian,183 nM
same,TGI,OVCAR-5 ovarian,14500 nM
same,GI50,OVCAR-8 ovarian,91.7 nM
same,TGI,OVCAR-8 ovarian,1750 nM
same,GI50,PC-3 prostate,744 nM
same,TGI,PC-3 prostate,16500 nM
same,GI50,RPMI-8226 leukemia,26.8 nM
same,TGI,RPMI-8226 leukemia,74.7 nM
same,GI50,RXF 393 renal,1140 nM
same,TGI,RXF 393 renal,17500 nM
same,GI50,SF-268 CNS,984 nM
same,TGI,SF-268 CNS,19300 nM
same,GI50,SF-295 CNS,815 nM
same,TGI,SF-295 CNS,17300 nM
same,GI50,SF-539 CNS,286 nM
same,TGI,SF-539 CNS,12900 nM
same,GI50,SK-MEL-28 melanoma,448 nM
same,TGI,SK-MEL-28 melanoma,16700 nM
same,GI50,SK-MEL-5 melanoma,96.4 nM
same,TGI,SK-MEL-5 melanoma,1910 nM
same,GI50,SK-OV-3 ovarian,142 nM
same,TGI,SK-OV-3 ovarian,6780 nM
same,GI50,SN12C renal,3260 nM
same,TGI,SN12C renal,19900 nM
same,GI50,SNB-19 CNS,371 nM
same,TGI,SNB-19 CNS,16200 nM
same,GI50,SNB-75 CNS,634 nM
same,TGI,SNB-75 CNS,19100 nM
same,GI50,SR leukemia,27.3 nM
same,TGI,SR leukemia,252 nM
same,GI50,SW-620 colon,10100 nM
same,TGI,SW-620 colon,21800 nM
same,GI50,T-47D breast,293 nM
same,TGI,T-47D breast,13200 nM
same,GI50,TK-10 renal,91.5 nM
same,TGI,TK-10 renal,8290 nM
same,GI50,U251 glioblastoma,1170 nM
same,TGI,U251 glioblastoma,17900 nM
same,GI50,UACC-257 melanoma,58.1 nM
same,TGI,UACC-257 melanoma,1940 nM
same,GI50,UACC-62 melanoma,43 nM
same,TGI,UACC-62 melanoma,10500 nM
same,GI50,UO-31 renal,837 nM
same,TGI,UO-31 renal,20600 nM
